The text below walks through data of patent publication US5041432A, “Steroid derivatives useful as hypocholesterolemics” (E. I. Du Pont de Nemours and Company, priority 1990, dated 1991).

The target of assay [1] is T1, Lanosta-8,24-dien-3β-ol 14α-methyl demethylase (Rattus norvegicus, UniProt Q64654).
T1 construct: rat hepatic microsomal preparations; from tissue; host or cells: rat liver microsomes
T1 sequence (Q64654 1-503): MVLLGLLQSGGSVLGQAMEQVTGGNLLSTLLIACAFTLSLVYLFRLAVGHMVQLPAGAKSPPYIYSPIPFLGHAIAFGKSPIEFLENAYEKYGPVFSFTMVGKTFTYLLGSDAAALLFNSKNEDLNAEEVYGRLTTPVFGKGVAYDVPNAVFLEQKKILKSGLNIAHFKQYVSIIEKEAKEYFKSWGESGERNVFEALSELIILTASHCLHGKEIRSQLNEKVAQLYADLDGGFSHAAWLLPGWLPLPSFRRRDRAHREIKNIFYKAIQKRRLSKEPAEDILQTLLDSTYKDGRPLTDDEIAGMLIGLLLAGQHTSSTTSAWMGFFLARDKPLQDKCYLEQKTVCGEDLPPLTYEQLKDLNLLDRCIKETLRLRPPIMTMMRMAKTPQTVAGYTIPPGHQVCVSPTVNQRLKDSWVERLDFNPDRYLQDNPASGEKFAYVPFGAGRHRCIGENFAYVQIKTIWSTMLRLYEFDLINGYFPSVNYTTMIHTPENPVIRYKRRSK
Description: Lanosta-8,24-dien-3β-ol 14α-Methyl Demethylase Inhibition Assay. In kind it is biochemical. The protocol:
B. Lanosta-8,24-dien-3β-ol 14α-Methyl Demethylase Inhibition Assay
Lanosta-8,24-dien-3β-ol 14α-methyl demethylase activity was determined in rat hepatic microsomal preparations as described in Trzaskos et al., J. Biol. Chem., 261, 16937-16942 (1986). Specifically, test compounds were added to assay mixtures as detergent suspensions with substrate employing 5 mg Triton WR-1339, 100 μM lanost-8-en-3β-ol substrate, and test compounds ranging from 0 to 100 μM. The inhibitor/substrate/detergent suspension was incubated with 2 mg microsomal protein for 5 min at 37° followed by a 10 min incubation initiated by the addition of cofactors required for the reaction. […] Inhibition values are expressed as the amount of compound required to inhibit lanosta-8,24-dien-3β-ol 14α-methyldemethylase activity by 50% relative to that of the controls.

Assay [2] relates to de novo cholesterol synthesis. Description: Decreasing de novo cholesterol synthesis (radiolabeled acetate incorporation into cholesterol in CHO cells). In kind it is cell-based, Chinese Hamster (CHO cells). Particulars: Cricetulus griseus, 19 h, % of control culture (Control = 100). The protocol:
The ability of the compounds of Formula I to decrease de novo cholesterol synthesis was tested by measuring the incorporation of radiolabeled acetate into cholesterol synthesized in CHO cells. To conduct this experiment, CHO cells were plated at 0.3×10^6 cells per 15×60 mm tissue culture dish in 5 mL of McCoy's modified medium (Gibco Laboratories) containing 1% Cab-O-Sil delipidated FBS and incubated for 48 hours at 37° in a 5% CO2, 95% air environment. Test compounds in a 2.5% suspension of BSA (fatty acid free) in ethanol were then added to the cultures such that the final ethanol and BSA concentrations were 0.5% and 2.5%, respectively. Control cultures received ethanol and BSA alone. […]
The cells were harvested by washing the cells twice with 5 mL of cold PBS and scraping the cells into 1 mL PBS. […] The petroleum ether fractions were dried under nitrogen, resuspended in ethanol, counted and analyzed by reverse phase HPLC at 45° using an Ultrashpere Octyl column (from Altex Scientific Inc., Berkeley, Calif.) with a mobile phase of acetonitrile:methanol:water (44:44:12). The amount of cholesterol synthesis is measured by the amount of radiolabeled acetate incorporated into the cholesterol peak. The percent of cholesterol synthesis in the treated culture is calculated based upon the control culture.

Assay [3] relates to 3-Hydroxy-3-Methylglutaryl Coenzyme A Reductase (HMGR). Description: HMGR Suppression Assay (HMGR activity in digitonin-permeabilized CHO cells). The format is cell-based, Chinese Hamster (CHO cells). Particulars: tested under the same conditions as Table I. The method, then:
The ability of the compounds of Formula I to suppress the activity of HMGR, the rate limiting enzyme of cholesterol biosynthesis, was tested as follows. Chinese Hamster Ovary (CHO) cells were divided twice weekly and were maintained in McCoy's 5A medium supplemented with 1% Cab-O-Sil delipidated Fetal Bovine Serum (FBS) (obtained from Gibco Laboratories, Chagrin Falls, Ohio). […] Control cells were treated in an identical fashion to those which received test compound, except they were incubated with the BSA and ethanol suspension only.
Specifically, the medium in each well was aspirated and the cells rinsed with a 50 mM solution of phosphate buffered saline (PBS). One mL of 30 μg/mL of digitonin in CSK buffer (prepared using 10 mM Pipes [piperazine-N,N'-bis(2-ethansulfonic)acid'], 100 mM KCl, 2.5 mM MgCl2, 300 mM sucrose, 1 mM EGTA, pH 6.8) was added to each well and incubated for 10 min at 22° to permeabilize the cells. […] HMGR activity was measured directly by adding 75 μL of PIB buffer (50 mM potassium phosphate, 1 mM Na2 EDTA, 10 mM dithiothreitol, pH 7.4) to each well and incubating the cells for 30 minutes at 37° as described above. […] The assay mixture was incubated for 30 min at 37° and terminated by the addition of 70 μL of [^3 H]-mevalonic acid (35,000 DPM/assay), 0.15 mg/mL in 3 N HCl. The reaction was left to lactonize for an additional 30 min at 37° or overnight at room temperature.
Reaction products were separated by thin layer chromatography on silica gel G (obtained from Analtech, Newark, Del.) developed in an unsaturated environment with acetone:benzene (3:2, v:v). The band corresponding to mevalonolactone was identified by exposure to iodine vapor and was scraped into counting vials. […] Corrections for recovery and blank values were made for each sample. […] Cellular protein was solubilized from culture dishes by the addition of 20 μL of 16 N KOH and assayed directly for protein amount. Suppression values are expressed as the amount of compound required to suppress HMGR activity by 50% relative to that of the controls.

The structures appear in SMILES notation. pIC50: −log10 of the molar value.

As to `C=CC(O)[C@@]12CC[C@H]([C@H](C)CCCC(C)C)[C@@]1(C)CCC1=C2CC[C@H]2C(C)(C)[C@@H](O)CC[C@]12C` (single isomer, unassigned) [Compound 11a, 4,4-dimethyl-14α-(1'-hydroxy-2'-propenyl)-5α-cholest-8-en-3β-ol], the negative logarithm of the IC50 (pIC50) in assay [1] (rat hepatic microsomes, 100 μM lanost-8-en-3β-ol substrate, test compounds 0 to 100 μM) was 6.10. The activity at 1 µM in assay [2] was found to be 1%.

Regarding `CC(C)CCC[C@@H](C)[C@H]1CC[C@H]2[C@@H]3CC=C4C[C@@H](O)CC[C@]4(C)[C@H]3CC[C@]12C` [cholesterol], the “effect on lanosta-8,24-dien-3β-ol 14α-methyl demethylase activity” value in assay [1] (tested under the same conditions as Table I) is “without effect”. In addition, the “effect on measured HMGR activity” value in assay [3] is given as “without effect”.

As to `CC(C)CCC[C@@H](C)[C@H]1CC[C@@]2(C)C3=C(CC[C@]12C)[C@@]1(C)CC[C@H](O)C(C)(C)[C@@H]1CC3` [lanost-8-en3β-ol, lanost-8-en-3β-ol], the “substrate for the demethylase enzyme” value in assay [1] was “clearly served as substrates”. Moreover, the “effect on measured HMGR activity” value in assay [3] is “without effect”.

With `CC(C)=CCC[C@@H](C)[C@H]1CC[C@@]2(C)C3=C(CC[C@]12C)[C@@]1(C)CC[C@H](O)C(C)(C)[C@@H]1CC3` [lanosta-8,24-dien-3β-ol], the “substrate for the demethylase enzyme” value in assay [1] is listed as “clearly served as substrates”. Further, the “effect on measured HMGR activity” value in assay [3] is on record as “without effect”.
